Assay [1] addresses GST-tagged KRAS-G12V (2-169) (Homo sapiens, UniProt P01116, G12V). The assay is described as follows: Nucleotide exchange assay (NEA), SOS-mediated, HTRF, KRAS G12V. Type of assay: biochemical. To be noted: Table 4; IC50 extracted at 90 min; 80 nM SOS. In short, it runs like this:
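Exchange onto fluorescent GTP-DY-647P1 (150 nM final) catalysed by 80 nM SOS1cat was followed by Tb-anti-GST HTRF at RT for up to 90 min, after 1 h compound pre-incubation with 0.25 nM GST-tagged KRAS-G12V (2-169), pH 7.3. DMSO = 0%, no-SOS blank = 100%; 4-parameter IC50 taken at 90 min.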
On the technique in general: Time-resolved FRET reads energy transfer from a long-lived donor to a nearby acceptor.

Assay [2] has as its system phospho-ERK in GP2D (KRAS-G12D) cells. As to the kind of experiment: pERK In Cell Western (ICW) assay (Method B), GP2D. The format is cell-based. In short, it runs like this:
(§1)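 Per well, infrared pERK immunofluorescence was divided by DRAQ5 nuclear signal following 3 h treatment with a 9-point, ½-log compound series; seeding was 5,000 (AGS) or 10,000 (GP2D, SW620) cells per well. Percent-of-blank data were fitted to a four-parameter model for IC50.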

In assay [3] the test system is phospho-ERK in SW620 (KRAS-G12V) cells. As to the kind of experiment: pERK In Cell Western (ICW) assay (Method B), SW620. Type of assay: cell-based. Put shortly:
as §1

The target in assay [4] is GST-tagged KRAS-G12D (2-169) (Homo sapiens, UniProt P01116, G12D). The assay is described as follows: Nucleotide exchange assay (NEA), SOS-mediated, HTRF, KRAS G12D. The conditions noted are these: Table 4; IC50 extracted at 30 min; 20 nM SOScat; read-out: NEA G12D IC50. Type of assay: biochemical. In short, it runs like this:
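SOS1cat-driven loading of fluorescent GTP-DY-647P1 (150 nM) onto GST-KRAS-G12D (2-169, 0.25 nM) read by time-resolved FRET; SOScat 20 nM, compound preincubated with KRAS 1 h at RT. Signal blanked to no-SOS reactions, normalized to DMSO; IC50 fitted from the 30-min read.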

[5] abbreviates: Homo sapiens, SW-620, 3 h, Table 4.

GST-tagged KRAS-G12V (2-169), sequence (P01116 2-169 isoform P01116-2 G12V): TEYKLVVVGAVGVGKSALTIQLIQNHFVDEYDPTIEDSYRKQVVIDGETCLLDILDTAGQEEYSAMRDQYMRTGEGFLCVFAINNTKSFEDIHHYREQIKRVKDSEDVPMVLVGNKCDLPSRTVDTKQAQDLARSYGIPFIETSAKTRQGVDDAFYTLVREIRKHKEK
GST-tagged KRAS-G12D (2-169), sequence (P01116 2-169 isoform P01116-2 G12D): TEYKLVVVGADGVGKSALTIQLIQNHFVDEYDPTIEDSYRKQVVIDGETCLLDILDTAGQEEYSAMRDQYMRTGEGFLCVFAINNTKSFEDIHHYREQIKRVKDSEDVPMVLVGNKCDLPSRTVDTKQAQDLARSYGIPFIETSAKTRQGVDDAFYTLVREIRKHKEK

As a reminder, the IC50 is the concentration that inhibits the measured activity by half. Consider `CCN(c1nc(OC[C@@]23CCCN2C[C@H](F)C3)nc(N2CC3(C2)SCc2sc(N)c(C#N)c23)n1)[C@@H](C)c1cccnc1N` [Compound 139B, 2-amino-1′-[4-[[(1*)-1-(2-amino-3-pyridyl)ethyl]-ethyl-amino]-6-[[(2R,8S)-2-fluoro-1,2,3,5,6,7-hexahydropyrrolizin-8-yl]methoxy]-1,3,5-triazin-2-yl]spiro[6H-thieno[3,4-b]thiophene-4,3′-azetidine]-3-carbonitrile], for which the IC50 in assay [1] was under 10 nM; in assay [2] (GP2d, 3 h, Table 4), 10 to 100 nM; in assay [3] (setting [5]), 10 to 100 nM; in assay [4], under 10 nM.
With `CC(O)CN(Cc1cccnc1N)c1nc(OC[C@@]23CCCN2C[C@H](F)C3)nc(N2CC3(CCc4sc(N)c(C#N)c43)C2)n1` (stereo partly drawn) [Compound 141, 2-amino-1′-[4-[(2-amino-3-pyridyl)methyl-(2-hydroxypropyl)amino]-6-[[(2R,8S)-2-fluoro-1,2,3,5,6,7-hexahydropyrrolizin-8-yl]methoxy]-1,3,5-triazin-2-yl]spiro[5,6-dihydrocyclopenta[b]thiophene-4,3′-azetidine]-3-carbonitrile], the IC50 is under 10 nM in assay [1]; 1000 to 20000 nM in assay [2] (GP2d, 3 h, Table 4); 100 to 1000 nM in assay [3] (setting [5]); 10 to 100 nM in assay [4].
For the molecule `C[C@H](c1cc(N)ncc1F)N(C)c1nc(OC[C@@]23CCCN2C[C@H](F)C3)nc(N2CC3(CCc4sc(N)c(C#N)c43)C2)n1` [Compound 142, 2-amino-1′-[4-[[(1R)-1-(2-amino-5-fluoro-4-pyridyl)ethyl]-methyl-amino]-6-[[(2R,8S)-2-fluoro-1,2,3,5,6,7-hexahydropyrrolizin-8-yl]methoxy]-1,3,5-triazin-2-yl]spiro[5,6-dihydrocyclopenta[b]thiophene-4,3′-azetidine]-3-carbonitrile], the IC50 in assay [1] is under 10 nM; in assay [2] (Table 4, 3 hours) it was 10 to 100 nM; in assay [3] (Table 4, 3 hours) it was 10 to 100 nM; in assay [4], under 10 nM.
As for `C[C@@]1(O)C[C@H](F)CN(c2nc(OC[C@@]34CCCN3C[C@H](F)C4)nc(N3CC4(C3)SCc3sc(N)c(C#N)c34)n2)C1` [Compound 143, 2-amino-1′-[4-[[(2R,8S)-2-fluoro-1,2,3,5,6,7-hexahydropyrrolizin-8-yl]methoxy]-6-[(3R,5S)-5-fluoro-3-hydroxy-3-methyl-1-piperidyl]-1,3,5-triazin-2-yl]spiro[6H-thieno[3,4-b]thiophene-4,3′-azetidine]-3-carbonitrile], the half-inhibitory concentration (IC50) was under 10 nM in assay [1]; under 10 nM in assay [2] (GP2d, 3 h, Table 4); 10 to 100 nM in assay [3] (setting [5]); under 10 nM in assay [4].
Turning to `N#Cc1c(N)sc2c1C1(CN(c3nc(OC[C@@]45CCCN4C[C@H](F)C5)nc(N4CCOCC(C#N)C4)n3)C1)SC2` (stereo partly drawn) [Compound 146, 4-[4-(2-amino-3-cyano-spiro[6H-thieno[3,4-b]thiophene-4,3′-azetidine]-1′-yl)-6-[[(2R,8S)-2-fluoro-1,2,3,5,6,7-hexahydropyrrolizin-8-yl]methoxy]-1,3,5-triazin-2-yl]-1,4-oxazepane-6-carbonitrile], the IC50 in assay [1] was under 10 nM; in assay [2] (GP2d, 3 h, Table 4), 100 to 1000 nM; in assay [3] (setting [5]), 100 to 1000 nM; in assay [4], 10 to 100 nM.
With `C[C@H](c1cccnc1N)N(CCC#N)c1nc(OCC2(CN3CCOCC3)CC2)nc(N2CC3(C2)SCc2sc(N)c(C#N)c23)n1` [Compound 148, (R)-2′-amino-1-(4-((1-(2-aminopyridin-3-yl)ethyl)(2-cyanoethyl)amino)-6-((1-(morpholinomethyl)cyclopropyl)methoxy)-1,3,5-triazin-2-yl)-6′H-spiro[azetidine-3,4′-thieno[3,4-b]thiophene]-3′-carbonitrile], the IC50 in assay [1] is under 10 nM; in assay [2] (GP2d, 3 h, Table 4) it was 10 to 100 nM; in assay [3] (setting [5]), under 10 nM; in assay [4], under 10 nM.
With `CC(CO)N(Cc1cccnc1N)c1nc(OC[C@@]23CCCN2C[C@H](F)C3)nc(N2CC3(CCc4sc(N)c(C#N)c43)C2)n1` (stereo partly drawn) [Compound 149, 2-amino-1′-[4-[(2-amino-3-pyridyl)methyl-(2-hydroxy-1-methyl-ethyl)amino]-6-[[(2R,8S)-2-fluoro-1,2,3,5,6,7-hexahydropyrrolizin-8-yl]methoxy]-1,3,5-triazin-2-yl]spiro[5,6-dihydrocyclopenta[b]thiophene-4,3′-azetidine]-3-carbonitrile], the IC50 in assay [1] was under 10 nM; in assay [2] (GP2d, 3 h, Table 4) it was 1000 to 20000 nM; in assay [3] (setting [5]) it was 100 to 1000 nM; in assay [4], under 10 nM.
With `CN(Cc1cncs1)c1nc(OC[C@@]23CCCN2C[C@H](F)C3)nc(N2CC3(CCc4sc(N)c(C#N)c43)C2)n1` [Compound 152, 2-amino-1′-[4-[[(2R,8S)-2-fluoro-1,2,3,5,6,7-hexahydropyrrolizin-8-yl]methoxy]-6-[methyl(thiazol-5-ylmethyl)amino]-1,3,5-triazin-2-yl]spiro[5,6-dihydrocyclopenta[b]thiophene-4,3′-azetidine]-3-carbonitrile], the half-inhibitory concentration (IC50) in assay [1] is 100 to 1000 nM; in assay [2] (GP2d, 3 h, Table 4), 1000 to 20000 nM; in assay [3] (setting [5]), 1000 to 20000 nM; in assay [4], 1000 to 20000 nM.
For the molecule `CN(C)CC1(COc2nc(N3CC4(C3)SCc3sc(N)c(C#N)c34)nc(N3C[C@@H](F)C[C@@](C)(O)C3)n2)CC1(F)F` (stereo partly drawn) [Compound 153, 2-amino-1′-[4-[[1-[(dimethylamino)methyl]-2,2-difluoro-cyclopropyl]methoxy]-6-[(3R,5S)-5-fluoro-3-hydroxy-3-methyl-1-piperidyl]-1,3,5-triazin-2-yl]spiro[6H-thieno[3,4-b]thiophene-4,3′-azetidine]-3-carbonitrile], the IC50 in assay [1] was under 10 nM; in assay [2] (GP2d, 3 h, Table 4), under 10 nM; in assay [3] (setting [5]), 10 to 100 nM; in assay [4], under 10 nM.
With `CC(c1nonc1N)N(C)c1nc(OC[C@@]23CCCN2C[C@H](F)C3)nc(N2CC3(CCc4sc(N)c(C#N)c43)C2)n1` (stereo partly drawn) [Compound 156, 2′-amino-1-(4-((1-(4-amino-1,2,5-oxadiazol-3-yl)ethyl)(methyl)amino)-6-(((2R,7aS)-2-fluorotetrahydro-1H-pyrrolizin-7a(5H)-yl)methoxy)-1,3,5-triazin-2-yl)-5′,6′-dihydrospiro[azetidine-3,4′-cyclopenta[b]thiophene]-3′-carbonitrile], the IC50 in assay [1] was under 10 nM; in assay [2] (GP2d, 3 h, Table 4), 1000 to 20000 nM; in assay [3] (setting [5]), 10 to 100 nM; in assay [4], 100 to 1000 nM.
As for `CC(c1cn(C)nc1N)N(C)c1nc(OC[C@@]23CCCN2C[C@H](F)C3)nc(N2CC3(CCc4sc(N)c(C#N)c43)C2)n1` (stereo partly drawn) [Compound 157, amino-1′-[4-[1-(3-amino-1-methyl-pyrazol-4-yl)ethyl-methyl-amino]-6-[[(2R,8S)-2-fluoro-1,2,3,5,6,7-hexahydropyrrolizin-8-yl]methoxy]-1,3,5-triazin-2-yl]spiro[5,6-dihydrocyclopenta[b]thiophene-4,3′-azetidine]-3-carbonitrile], the IC50 in assay [1] fell in the range of 10 to 100 nM; in assay [2] (GP2d, 3 h, Table 4), 1000 to 20000 nM; in assay [3] (setting [5]) it was 1000 to 20000 nM; in assay [4], 100 to 1000 nM.
Regarding `CC(c1ccns1)N(C)c1nc(OC[C@@]23CCCN2C[C@H](F)C3)nc(N2CC3(CCc4sc(N)c(C#N)c43)C2)n1` (stereo partly drawn) [Compound 158, 2-amino-1′-[4-[[(2R,8S)-2-fluoro-1,2,3,5,6,7-hexahydropyrrolizin-8-yl]methoxy]-6-[1-isothiazol-5-ylethyl(methyl)amino]-1,3,5-triazin-2-yl]spiro[5,6-dihydrocyclopenta[b]thiophene-4,3′-azetidine]-3-carbonitrile], the concentration for half-maximal inhibition (IC50) in assay [1] is under 10 nM; in assay [2] (GP2d, 3 h, Table 4) it was 1000 to 20000 nM; in assay [3] (setting [5]) it was 100 to 1000 nM; in assay [4], 100 to 1000 nM.
Turning to `CC(=O)C(O)(O)C(=O)N1[C@@H]2CC[C@H]1CN(c1nc(OC[C@@]34CCCN3C[C@H](F)C4)nc(N3CC4(C3)SCc3sc(N)c(C#N)c34)n1)C2` [Compound 159, 2-amino-1′-[4-[(1R,5S)-8-(2,2-dihydroxy-3-oxo-butanoyl)-3,8-diazabicyclo[3.2.1]octan-3-yl]-6-[[(2R,8S)-2-fluoro-1,2,3,5,6,7-hexahydropyrrolizin-8-yl]methoxy]-1,3,5-triazin-2-yl]spiro[6H-thieno[3,4-b]thiophene-4,3′-azetidine]-3-carbonitrile], the IC50 in assay [1] was in the range of 100 to 1000 nM; in assay [2] (GP2d, 3 h, Table 4) it was 100 to 1000 nM; in assay [3] (setting [5]), 1000 to 20000 nM; in assay [4] it was 10 to 100 nM.
`CN(c1nc(OC[C@@]23CCCN2C[C@H](F)C3)nc(N2CC3(C2)SCc2sc(N)c(C#N)c23)n1)C1CC1` [Compound 160, 2-amino-1′-[4-[cyclopropyl(methyl)amino]-6-[[(2R,8S)-2-fluoro-1,2,3,5,6,7-hexahydropyrrolizin-8-yl]methoxy]-1,3,5-triazin-2-yl]spiro[6H-thieno[3,4-b]thiophene-4,3′-azetidine]-3-carbonitrile]: the IC50 in assay [1] is 10 to 100 nM; in assay [2] (GP2d, 3 h, Table 4) it was 100 to 1000 nM; in assay [3] (setting [5]), 100 to 1000 nM; in assay [4], 10 to 100 nM.
